In US11938164B2, “Exosome-based cancer assays” (TRUSTEES OF BOSTON UNIVERSITY, priority 2021, dated 2024):

What was measured:
4T1 cells = test: Transwell migration assay with 4T1 cells; type: cell-based, murine; settings: 50 nM MZ-1
Experimental: FIGS. 9A-9D depict EMT induction in murine 4T1 cells treated with EVs from IS vs IR murine adipocytes. Murine 3T3-L1 adipocytes were differentiated from pre-adipocyte fibroblasts as published (24), treated with 250 pM murine TNFα overnight, as specified to induce insulin resistance (9), then adipocyte conditioned media was used as the source of EVs. (FIG. 9A) 4T1 cells were treated for 3 days with EVs from IS or IR adipocytes, vs. media control EVs, then cells were fixed for immunohistochemistry. Vimentin and E-cadherin, as mesenchymal or epithelial markers respectively, were visualized by fluorophore-conjugated primary anti-mouse antibodies, with phalloidin stain for cytoskeletal structure and DAPI counterstain for DNA. Bar, 10 μm. (FIG. 9B) RT-PCR validation of two selected EMT genes, induced by EVs. (FIG. 9C) Transwell migration assay with 4T1 cells exposed to IS vs IR EVs, or IR treated with 50 nM MZ-1 (25) to inhibit BRD4 and block migration (18,24). (FIG. 9D) Quantitation of B. (n=3; ***, P<0.005).

PD-L1 = test: Flow cytometry of PD-L1 on DU145 cells; type: cell-based, human; settings: MZ-1 50 nM, JQ1 400 nM
Experimental: Single-cell suspensions were washed after collection and stained in ice-cold Ca^+2/Mg^+2-free PBS with a viability dye (Zombie NIR, BioLegend) for 20 min at 4° C. in the dark. Cell suspensions were then washed twice with ice-cold flow cytometry buffer (Ca^+2/Mg^+2-free PBS, supplemented with 2% FBS and 2 mM EDTA). Cell suspensions were then stained for PD-L1 (PE-conjugated, BD Biosciences). All cell suspensions were washed twice in ice cold flow cytometry buffer before analysis. Unstained cells and single-stained controls were used to calculate flow cytometry compensation. Data acquisition (typically 1 million events) was performed on a BD LSRII instrument at the Boston University Flow Cytometry Core Facility. Data analysis was carried out using FlowJo Software (version 10.6.1, Tree Star).

DU145 cells = test: RT-PCR of SNAI1 and CD274 in DU145 cells after T2D exosomes plus JQ1 or MZ-1; type: cell-based, human; settings: MZ-1 50 nM, JQ1 400 nM
Experimental: (FIG. 19A) Expression of SNAI1 and CD274 genes in DU145 cells measured by RT-PCR of cellular RNA after exosome treatment. T2D exosomes (109; T2D Exo) were compared to media only control exosomes (Control), or T2D Exo+JQ1 or MZ1. (JQ1 is a pan-BET inhibitor (400 nM) and MZ-1 is a BRD4-selective degrader (50 nM)). (FIG. 19B) Expression of PD-L1 was measured by flow cytometry after treatments. One million events were analyzed by Flow-Jo and presented as overlaid histograms (control, red trace; experimental, black trace). (FIG. 19C) Flow cytometry data of FIG. 19B were quantified with PD-L1 as percent of parent population. The experiment was conducted in triplicate with differences between means represented as bar graphs. Data were analyzed by two-way ANOVA with statistical significance presented as: ****, P<0.0001 (TGFB, TGF-β positive control at 5 ng/mL for SNAI1 induction; IFNgamma, interferon-γ positive control at 5 ng/mL for CD274 induction).
Procedures were as previously described. Briefly, total RNA was extracted from tumor cells using an RNAeasy Kit (Qiagen). Reverse transcription reactions were performed with 1 μg of total RNA with the QuantiTect Reverse Transcription kit (Qiagen). Gene expression was measured using TaqMan™ master mix (Thermofisher, 4369510) and human gene probes as follows: SNAI (Hs00195591_m1), SNA2 (Hs00950344_m1), CDH1 (Hs01023895_m1), ACTB (Hs00357333_g1), CD274 (encodes PD-L1, Hs01125301_m1), CD155 (encodes PVR or TIGIT ligand, Hs00197846_m1), VIM (Hs00958111_m1), TGFB1 (Hs00998133_m1), and AHNAK (Hs01102463_m1).

BRD2, BRD3 and BRD4 = settings: DU145 cells, cited from earlier work
MCF-7 cells = test: EMT/CSC gene expression (RT-PCR, PCR array, IPA) in MCF-7 cells treated with adipocyte exosomes; type: cell-based, human; settings: MCF7 cells; compared to control EVs
Experimental: RNA was isolated from cells using RNeasy Plus Mini Kit (74136, Qiagen). From each sample, 1 μg of RNA was used to prepare 20 μL cDNA using QuantiTect Reverse Transcription Kit (Qiagen, 205313). Human RT2 Profiler™ PCR Array, including Epithelial to Mesenchymal Transition (EMT) (PAHS-090Z) and Cancer Stem Cell (PAHS-176ZC) arrays, were purchased from Qiagen. Each cDNA sample (102 μL comprised of 1 μg RNA) was mixed with 1,350 μL RT2 SYBR Green ROX qPCR Mastermix (Qiagen, 330522) and 1,248 μL RNAse-free water. A total volume of 2,700 μL was mixed by vortexing and transferred to a reservoir. Then, an 8 channel pipettor was used to take aliquots of reaction mix from the reservoir, to distribute 25 μL into each well of the array. PCR reactions were performed and results were analyzed using a 7500 Fast Real-Time PCR instrument.
All Ct values of the genes were normalized to the respective ACTB gene (delta Ct). […] For the control groups, delta.delta Ct was calculated using this formula: ΔΔCt=ΔCt (C1 or C2 or C3)—ΔCt (Control average). Then, fold-change was calculated using 2∧−ΔΔCt, (2 to the power of negative ΔΔCt). Next, the Z score was calculated based on this formula: Z score=(x-mean)/SD, where X is the fold-change. […]
To predict disease and function, and downstream pathways, data were analyzed through the use of Ingenuity Pathway Analysis, IPA (QIAGEN Inc.). […]

| Compound | 4T1 migration provoked by exosomes from IR adipocytes (4T1 cells) | PD-L1 surface protein induced by T2D exosome treatment (PD-L1) | expression of SNAI1 induced by T2D plasma exosomes (DU145 cells) | transcription of CD274 induced by T2D plasma exosomes (DU145 cells) | elimination of BET proteins, low concentration (BRD2, BRD3 and BRD4; 50 nM) | elimination of BET proteins, high doses (BRD2, BRD3 and BRD4; 400 nM) | transcription of ZEB1 and SNAI2 readout genes (MCF-7 cells) |
| --- | --- | --- | --- | --- | --- | --- | --- |
| Cc1ncsc1-c1ccc(CNC(=O)[C@@H]2C[C@@H](O)CN2C(=O)[C@@H](NC(=O)COCCOCCOCCNC(=O)C[C@@H]2N=C(c3ccc(Cl)cc3)c3c(sc(C)c3C)-n3c(C)nnc32)C(C)(C)C)cc1 [MZ-1] | effectively ablated | inhibited | inhibited expression | same inhibitory effect | selective to eliminate BRD4 protein while preserving BRD2 and BRD3 | eliminate all three somatic BET proteins | – |
| TGF-β | – | – | – | – | – | – | Induction |
| Cc1sc2c(c1C)C(c1ccc(Cl)cc1)=N[C@@H](CC(=O)OC(C)(C)C)c1nnc(C)n1-2 [JQ1] | – | inhibited | not able to reduce expression below the BRD4-selective level | inhibit transcription to below baseline | – | – | – |
